Legend:
[1] = test system: Npc1^−/− (BALB/cNctr-Npc1^m1N) mouse; assay: Coat condition and disease indications by observation; type: in vivo
From the text: Separate groups of Npc1^-/- and Npc1^+/+ mice were left untreated, as controls.

[2] = test system: patient with spinocerebellar ataxia 28 (SCA 28); assay: Case study, clinical evaluation; type: in vivo, human; settings: Ex. 14, SCA 28; 5 g per day; after about one month
Procedure: A gait analysis was performed before treatment commenced. After about one month of treatment, medication was stopped and the patient was evaluated. […] The patient reported that they no longer walked like a robot and could climb the stairs without using the banisters.

patients with vertigo = settings: used in France to treat acute vertigo since 1957; long-term safety not determined; cited from earlier work
Npc1^−/− mice [3] = assay: Motor function analysis (Open Field Activity Monitor); type: in vivo, mouse; settings: 0.1 g/kg from weaning, nine weeks of age, vs untreated littermates
Procedure: Separate groups of Npc1^−/− and Npc1^+/+ mice were left untreated, as controls. Motor function analysis was performed on mice at eight and nine weeks of age using an Open Field Activity Monitor according to manufacturer's instructions (Linton Instruments, Amlogger Software). Each mouse was placed in a plastic cage with bedding and analysed for five minutes. Rears were counted manually. Motor function parameters measured were: • 1. Centre Rearing: mice rearing on hind legs unsupported; • 2. Rearing: mice rearing on hind legs with and without the support of cage walls; • 3. Activity: regular movement of the animal including walks; • 4. Front to Back (FR) count: movement of the animal from front to back of the cage; • 5. Active Time: duration (s/min) of activeness regardless of movement; • 6. Mobile Time: duration (s/min) of mobility; • 7. Rearing Time: duration of any rearing.

[4] = test system: Hexb^−/− mouse (Sandhoff disease model); assay: Step cycle; type: in vivo; settings: Sandhoff mice, 0.1 g/kg from 3 weeks, 12 weeks of age
Procedure: This study made use of a mouse model of Sandhoff disease, the Hexb^−/− mouse, as described in Jeyakumar et al. (Jeyakumar, M. et al. (1999) Proc. Natl. Acad. Sci. USA 96: 6388-6393). Step cycle is the length of time taken during locomotion by a limb from the time it leaves the ground until it leaves the ground on the next occasion. Step cycle time was assessed at 12 weeks of age in untreated and acetyl-leucine treated Sandhoff model mice. Acetyl-leucine treatment constituted 0.1 g/kg body weight acetyl-leucine from 3 weeks of age.

Npc1^−/− mice [5] = assay: Weight data; type: in vivo, mouse; settings: 0.1 g/kg from weaning, vs untreated group
From the text: Separate groups of Npc1^−/− and Npc1^+/+ mice were left untreated, as controls. Animals were weighed twice a week. Weights were averaged (mean) across all mice in each group and compared.

[6] = test system: Hexb^−/− mouse (Sandhoff disease model); assay: Bar crossing test; type: in vivo
From the text: This study made use of a mouse model of Sandhoff disease, the Hexb^−/− mouse, as described in Jeyakumar et al. (Jeyakumar, M. et al. (1999) Proc. Natl. Acad. Sci. USA 96: 6388-6393). The bar crossing test is a method for assessing motor function in mice in which the mouse is placed hanging from the centre of a horizontal bar by its front limbs. A wild-type mouse with normal motor function will be able to engage its hind limbs and thereby move to one of the platforms at either end of the bar, and in doing so complete the test. […] In FIG. 7B, acetyl-leucine treatment of 0.1 g/kg body weight was provided from 3 weeks of age. The acetyl-leucine treated Sandhoff mice retained the ability to complete the test up to 13 weeks of age (inclusive). Data shown is the mean of 6 mice per group. The treated Sandhoff mice retained the ability to complete the test up to 13 weeks of age (inclusive).

[7] = test system: Niemann-Pick A (NPA) patient fibroblasts; assay: Lysosomal volume via LysoTracker; type: cell-based, human; settings: 1 mM, 6 days, vs untreated
[8] = test system: patients with ataxia with oculomotor apraxia type 4; assay: Case study, report of the patients'; type: in vivo, human; settings: Ex. 18, youngest sibling, AOA4; reported by parent
From the text: In this case study, four patients (male siblings) suffered from, and were later diagnosed with, ataxia with oculomotor apraxia type 4. The older three siblings […], at the time of disease onset. […] The older siblings began treatment with acetyl-leucine […], respectively, and have been on the treatment for approximately four years. No long-term clinical data is available for these three patients.
The youngest sibling was […] at the time of onset. […] No long-term clinical data is available for the youngest sibling.

[9] = test system: Tay-Sachs disease patient fibroblasts; assay: Glycosphingolipid (GSL) levels via HPLC; type: cell-based, human; settings: 1 mM for 6 days, p<0.05
[10] = test system: patients with multiple system atrophy Parkinson type (MSA-P); assay: Case studies, clinical examination; type: in vivo, human
From the text: Medication was stopped. […] The patient evaluated after one month on acetyl-DL-leucine. […] Episodes of mental confusion completely disappeared. The patient's cognitive structure seemed much clearer and straighter. […] The patient's spouse supported continuing the medication.

[11] = test system: Mucopolysaccharidosis Type VII (MPS VII) patient fibroblasts; assay: Lysosomal volume via LysoTracker; type: cell-based, human; settings: 1 mM, 6 days, vs untreated
[12] = test system: Sandhoff disease patient fibroblasts; assay: Glycosphingolipid (GSL) levels via HPLC; type: cell-based, human; settings: 1 mM for 6 days
[13] = test system: patient with GM1 Gangliosidosis; assay: Case study, patient evaluation (SARA, mRDS, EQ-5D-5L); type: in vivo, human; settings: Ex. 6, GM1 Gangliosidosis; 1.5 then 3 g per day; after one month
From the text: Before treatment was commenced, examination of the patient indicated a Scale for Assessment and Rating of Ataxia (SARA) score of 35/40, a mRDS score of 15, and a EQ-5D-5L visual scale of 50. The patient was started on therapy with acetyl-leucine at a dose of 1.5 g per day for the first week, followed by a dose of 3 g per day for the second week onwards.

[14] = test system: patients with cerebellar ataxia; settings: cited from earlier work

In the case of `CC(=O)NC(CC(C)C)C(=O)O` (racemic) [acetyl-DL-leucine], the “onset of discernible indication of disease” value ([1]; Npc1−/− mice treated from weaning, untreated show it from 5-6 weeks of age) is reported as “did not display such symptoms until two or more weeks later”, the coat condition ([1]; Npc1−/− mice, 0.1 g/kg in chow from weaning, nine weeks of age) is reported as “smooth and glossy coat” and the symptomatology [2] is reported as “reduced dizziness (almost vanished), and a more stable gait”. For the same compound, the safety profile (patients with vertigo) was “excellent safety profile”, the motor function properties (Npc1^−/− mice [3]) was “significantly improved motor function” and the “average step cycle time” value ([4]; p<0.001 vs untreated) was “significantly faster average step cycle times”. The “hind step cycle time” value ([4]; p<0.01 vs untreated) was “significantly faster hind step cycle times”, the “front step cycle time” value ([4]; p<0.05 vs untreated) was “significantly faster front step cycle times” and the “delay of weight loss symptoms” value (Npc1^−/− mice [5]) was “delayed these weight loss symptoms by two weeks”. The “age up to which the ability to complete the bar crossing test was retained” value ([6]; Sandhoff mice, 0.1 g/kg from 3 weeks of age, inclusive) was “up to 13 weeks of age”, the “motor function in bar-crossing test” value ([6]; Sandhoff mouse, 0.1 g/kg body weight from 3 weeks of age) was “improved motor function and hind-limb mobility/engagement” and the “LysoTracker fluorescence (lysosomal volume)” value [7] was “statistically significant reduction in LysoTracker fluorescence”. The “fine motor skills and speech compared to older siblings” value [8] was “improved fine motor skills and improved speech”, the GSL levels [9] was “this decrease was statistically significant” and the symptoms ([10]; Ex. 13 Patient 1, MSA-P, 3 g/day first week, 5 g/day thereafter, after 3 weeks) was “no significant improvement of gait, reduction of falls or improved hypokinetic rigid-syndrome”. The symptoms ([10]; Ex. 13 Patient 2, MSA-P, 3 then 5 g per day, after one month) was “subjective improvement of dizziness”, the cognitive function ([10]; Ex. 13 Patient 3, MSA-P, 3 then 5 g per day, after one month, reported by the patient's spouse) was “significant improvement of cognitive function” and the gait function ([10]; Ex. 13 Patient 3, MSA-P, after one month) was “no improvement of gait function”. The “LysoTracker fluorescence (lysosomal volume)” value [11] was “trend in reducing LysoTracker fluorescence”, the GSL levels [12] was “trend towards decreased GSL levels” and the symptoms on re-examination [13] was “stable general condition, increased gait (more fluent), and stable stance in natural position”. For the same compound, the “benefit in cerebellar ataxia” value ([14]; another case series (Pelz et al. 2015)) was “did not find benefit”, the cerebellar ataxia symptoms ([14]; case series with cerebellar patients (Strupp et al. 2013)) was “symptomatic improvement of cerebellar ataxia” and the temporal gait variability ([14]; quantitative gait analysis (Schniepp et al. 2015)) was “improved temporal gait variability”.
